The source of these data is paper PMC6413339 (EBioMedicine, 2019).

Data set [1] relates to MV4–11-luc cells. Description: In vivo efficacy, orthotopic human AML model. The following applies: for Photon intensity on whole body (mean±SEM): 25 mg/kg IP, 3×/week. The protocol: The in vivo efficacy of compounds was assessed in an orthotopic human AML model in NSG (NOD scid gamma, NOD-scid IL2Rg^null) mice that were bred at University of Maryland Baltimore (mating pairs acquired from Jackson Laboratories; Maine). […]. Three days later, engraftment was assessed by imaging on a Xenogen IVIS-2 Imaging System (Alameda) after an intraperitoneal (IP) injection of 150 mg/kg luciferin. Mice were sorted into four or five groups (n = 5) so that mean intensity (i.e., disease burden) was equal. Dosing started on day of sorting. Compounds were dissolved in 85% PBS (pH 7.4) buffer containing 10% DMSO and 5% Cremophore. The vehicle (buffer without compounds) was used as control. Mice were injected 3 to 5 days per week via IP injection. Mice were weighed on day of dosing and imaged once per week. […]. All mice were housed in a 12-h light/dark cycle with access to food and water ad libitum. Studies were performed with Institutional Animal Care and Use Committee (UMB and Purdue University) approval.
[…]. Female mice were dosed daily for 5 days via intraperitoneal injection and then monitored for an additional week for weight loss, a sign of toxicity in mice. […] To evaluate the anti-leukemic efficacy in vivo, six-week-old female NSG or NRG mice were injected intravenously with FLT3-ITD expressing acute myeloid leukemia cells (MV4–11), expressing luciferase. […] Dosing (i.p) with the compounds was then started. The mice were dosed with 25 mg/kg of the compounds three times a week (MWF). […] […].

The subject of data set [2] is MOLM-14 cells. Description: Antiproliferative activity (CellTitre-Blue, 72 h). The format is cell-based, human. Particulars: Homo sapiens, MOLM-14; 72 h incubation, triplicates; read-out: IC50 (mean ±SD, nM) MOLM-14. As to the method: (§1) Cells were seeded into 96-well tissue culture-treated plates at 2.0 × 10^4 cells/mL for up to 24 h. DMSO stock solutions of compounds were serially diluted first in DMSO and subsequently into RPMI before being added to the cell cultures in triplicates, with 10 μM being the highest tested concentration. The plates were incubated for 72 h as above. The CellTitre-Blue assay (Promega, Madison WI) was then added to the cultures and incubated a further 4 h before the fluorescence measured following the manufacturers recommendations. The fluorescence data from compounds were normalized to that DMSO and the resulting data fitted to a non-linear regression equation to obtain IC50 using GraphPad Prism 5.0 Software (La Jolla, CA, USA).

In data set [3] the test system is MV4–11 cells. Description: Antiproliferative activity (CellTitre-Blue, 72 h). The format is cell-based, human. The following applies: Homo sapiens, MV4-11, 72 h, 72 h incubation, triplicates; read-out: IC50 (mean ±SD, nM) MV4–11. The protocol:
as §1

In data set [4] the test system is MOLM-14 (ITD, D835Y) cells. Description: Antiproliferative activity (CellTitre-Blue, 72 h). The format is cell-based, human. The following applies: 72 h incubation, triplicates, read-out: IC50 (mean ±SD, nM) MOLM-14 (ITD, D835Y). As to the method:
as §1

For data set [5], the system named is MOLM-14 (ITD, F691 L) cells. Briefly: Antiproliferative activity (CellTitre-Blue, 72 h). It is filed as cell-based, human. The following applies: 72 h incubation, triplicates; listed as 7 (HSN431); read-out: IC50 (mean ±SD, nM) MOLM-14 (ITD, F691 L). As to the method: as §1
Data set [6] deals with phospho-p70S6K. Description: Western blot, MV4–11 cells. It is filed as cell-based, human. The following applies: 2 nM or 10 nM, 6 h and 48 h. The protocol:
(§2) MV4–11 cultures were treated with 2 nM and 10 nM of compounds for 6 h and 48 h. Total protein extraction, gel separation, transfer and imaging of blots were performed as previously described. The following primary antibodies from Cell Signaling Technologies (MA, USA) were used: Phospho-p70S6K (cat. no. 9205, RRID: AB_330944), p70S6K (cat. no. 9202, RRID: AB_331676), Phospho-p38 (cat. no. 9211, RRID: AB_331641), p38 (cat. no. 9212, RRID: AB_330713), c-Myc (cat. no. 9402, RRID: AB_2151827), Phospho-FLT3 (cat. no. 3461, RRID: AB_331060), FLT3 (cat. no. 3462, RRID: AB_10693420), Phospho-STAT5 (cat. no. 9359, RRID: AB_823649), STAT5 (cat. no. 9363, RRID: AB_2196923), Phospho-ERK (cat. no. 9101, RRID: AB_331646), ERK (cat. no. 4695, RRID: AB_390779), Phospho-AKT (cat. no. 9271), AKT (cat. no. 9272, RRID: AB_329825), Phospho-Src (cat. no. 2101, RRID: AB_331697), Src (cat. no. 2110, RRID: AB_2106058), Phospho-STAT3 (cat. no. 9145, RRID: AB_2491009), STAT3 (cat. no. 12640, RRID: AB_2629499). Mouse anti-β-Actin antibody was purchased from Sigma (MO, USA). A horseradish peroxidase-conjugated anti-rabbit or anti-mouse antibody (Cell Signaling Technologies) was used as secondary antibody. Scanned images were analyzed using image J software.

The test system of data set [7] is phospho-p38. Description: Western blot, MV4–11 cells. The format is cell-based, human. The following applies: 2 nM or 10 nM, 6 h and 48 h. The protocol:
as §2
Background: Immunoblotting shows a protein as a band on a membrane.

The test system of data set [8] is phospho-ERK. Description: Western blot, MV4–11 cells. The format is cell-based, human. Particulars: 2 nM or 10 nM, 6 h and 48 h. As to the method:
as §2

The test system of data set [9] is phospho-STAT5. Briefly: Western blot, MV4–11 cells. The following applies: 2 nM or 10 nM, 6 h and 48 h. It is filed as cell-based, human. The protocol: as §2
Data set [10] relates to c-Myc. Briefly: Western blot, MV4–11 cells. The format is cell-based, human. Particulars: 2 nM or 10 nM, 6 h and 48 h. As to the method: as §2
Data set [11] has as its system phospho-STAT3. Description: Western blot, MV4–11 cells. The following applies: 2 nM or 10 nM, 6 h and 48 h. It is filed as cell-based, human. As to the method:
as §2

Data set [12] deals with phospho-Akt. Description: Western blot, MV4–11 cells. The format is cell-based, human. The following applies: 2 nM or 10 nM, 6 h and 48 h. The protocol:
as §2

The subject of data set [13] is MV4–11 cells. Description: Trypan blue exclusion viable cell count. It is filed as cell-based, human. Particulars: 0.1–10 nM, 72 h. As to the method:
To determine the effect of HSN431 on actual leukemia cell counts, MV4–11 cells were seeded into 96 well plates as above and treated with either DMSO vehicle, or HSN431 at the following concentrations: 0.1 nM, 0.2 nM, 0.5 nM, 1 nM, 2 nM, 5 nM, and 10 nM. Cells were incubated for 72 h, and then counted using trypan blue exclusion on the Countess automated cell counter (Life Technologies, Carlsbad, CA). Cell counts were performed in triplicates, and the averages, standard deviations and t-test statistical analyses were graphed using GraphPad Prism software (GraphPad, La Jolla, CA).

Each structure is given as a SMILES string. “Also recorded” adds a separate entry of the source. Read-outs that look alike come from different tables or passages of the source.

Consider `Cc1ncc(C(=O)Nc2ccc(CN3CCN(C)CC3)c(C(F)(F)F)c2)cc1C#Cc1c(N)ncc2ccc(F)cc12` [Compound 7], for which, in data set [1] (25 mg/kg IP 3×/week for several weeks, listed as HSN431), the “adverse events / signs of toxicity on repeated dosing” value is recorded as “without any adverse events; also recorded: without any obvious signs of toxicity”. Further, the “reduction in leukemia burden” value in data set [1] (25 mg/kg i.p. three times a week (MWF), NSG or NRG mice) is listed as > 99%. Further, the “Photon intensity on whole body (mean±SEM)” value in data set [1] (Day 1, n = 5) was found to be 130000 ± 21400; in data set [1] (Day 27, n = 5), 4570 ± 615; in data set [1] (Day 41, n = 5), 19600 ± 3730; in data set [1] (Day 73, n = 5) it was 4390 ± 140. In addition, the survival result in [1] (after day 73, 25 mg/kg IP 3×/week, n = 5) was “all five mice were still alive”. Besides, the mice still alive in data set [1] (day 40, 25 mg/kg three times per week, all control mice had died) came out at 100%. Also, the IC50 (commonly the concentration that inhibits the measured activity by half) in data set [2] was 0.5 ± 0.01 nM; in data set [3], 0.5 ± 0.01 nM; in data set [4] (listed as 7 (HSN431)), 16.6 ± 5.8 nM; in data set [4] (Homo sapiens, MOLM-14, 72 h), ≤ 15 nM; in [5] it was 3.3 ± 0.3 nM. Also, the “phosphorylation of p70S6K” value in data set [6] is recorded as “decreased phosphorylation”. Further, in [7], the “phosphorylation of p38” value was “inhibition”. The “phosphorylation of ERK” value in data set [8] is “inhibition”. The STAT5 phosphorylation entry in data set [9] is “inhibited”. For the same compound, in data set [10], the c-Myc level entry is given as “modest inhibition”. Also, the STAT3 phosphorylation result in data set [11] is listed as “inhibited”. Further, the “phosphorylation of Akt” value in data set [12] is on record as “decreased phosphorylation”. In [13], the “viable MV4–11 cell count” value is reported as “decreased in presence of compound in dose-dependent manner”.
